Experimental data published in ChEMBL document CHEMBL3739320, “Synthesis and biological evaluation of novel semi-conservative monocarbonyl analogs of curcumin as anti-inflammatory agents” (Medchemcomm, 2015).
Active and inactive are the calls of the source. The rule behind the calls is not given here.

Assays:
[1] = Cytotoxicity against human HL-7702 cells at 10 uM after 24 hrs by MTT assay; type: cell-based; details: l02, 24 h
RAW264.7 [2] = assay: Antiinflammatory activity in LPS-induced mouse RAW264.7 macrophages assessed as suppression of TNF-alpha release pretreated at 10 uM for 2 hrs followed by stimulation with LPS for 22 hrs by ELISA; type: functional, cell-based
RAW264.7 [3] = assay: Antiinflammatory activity in LPS-induced mouse RAW264.7 macrophages assessed as suppression of IL-1beta mRNA level pretreated at 10 uM for 2 hrs followed by stimulation with LPS for 6 hrs by RT-qPCR analysis; type: functional, cell-based
RAW264.7 [4] = assay: Antiinflammatory activity in LPS-induced mouse RAW264.7 macrophages assessed as suppression of IL-6 mRNA level pretreated at 10 uM for 2 hrs followed by stimulation with LPS for 6 hrs by RT-qPCR analysis; type: functional, cell-based
[5] = tested on: Peritoneal macrophage cell; assay: Antiinflammatory activity in LPS-induced ICR mouse peritoneal macrophages assessed as suppression of IL-6 release pretreated for 2 hrs followed by stimulation with LPS for 22 hrs by ELISA; type: functional, cell-based
RAW264.7 [6] = assay: Antiinflammatory activity in LPS-induced mouse RAW264.7 macrophages assessed as suppression of TNF-alpha release pretreated for 2 hrs followed by stimulation with LPS for 22 hrs by ELISA; type: functional, cell-based
RAW264.7 [7] = assay: Antiinflammatory activity in LPS-induced mouse RAW264.7 macrophages assessed as suppression of COX-2 mRNA level pretreated at 10 uM for 2 hrs followed by stimulation with LPS for 6 hrs by RT-qPCR analysis; type: functional, cell-based
RAW264.7 [8] = assay: Antiinflammatory activity in LPS-induced mouse RAW264.7 macrophages assessed as suppression of IL-6 release pretreated for 2 hrs followed by stimulation with LPS for 22 hrs by ELISA; type: functional, cell-based
[9] = tested on: Peritoneal macrophage cell; assay: Antiinflammatory activity in LPS-induced ICR mouse peritoneal macrophages assessed as suppression of TNF-alpha release pretreated for 2 hrs followed by stimulation with LPS for 22 hrs by ELISA; type: functional, cell-based
RAW264.7 [10] = assay: Antiinflammatory activity in LPS-induced mouse RAW264.7 macrophages assessed as suppression of TNF-alpha mRNA level pretreated at 10 uM for 2 hrs followed by stimulation with LPS for 6 hrs by RT-qPCR analysis; type: functional, cell-based
[11] = biological target: Transcription factor p65 (Mus musculus) (UniProt Q04207); assay: Inhibition of NFkappaB in LPS-induced mouse RAW264.7 cells assessed as decrease in P65 in nucleus pretreated for 2 hrs followed by stimulation with LPS for 1 hr by Western blot analysis; type: cell-based
RAW264.7 [12] = assay: Antiinflammatory activity in LPS-induced mouse RAW264.7 macrophages assessed as suppression of COX-2 mRNA level pretreated for 2 hrs followed by stimulation with LPS for 6 hrs by RT-qPCR analysis; type: functional, cell-based
RAW264.7 [13] = assay: Antiinflammatory activity in LPS-induced mouse RAW264.7 macrophages assessed as suppression of TNF-alpha mRNA level pretreated for 2 hrs followed by stimulation with LPS for 6 hrs by RT-qPCR analysis; type: functional, cell-based
RAW264.7 [14] = assay: Inhibition of LPS-induced IkappaB-alpha degradation in LPS-induced mouse RAW264.7 cells pretreated for 2 hrs followed by stimulation with LPS for 1 hr by Western blot analysis; type: cell-based
RAW264.7 [15] = assay: Antiinflammatory activity in LPS-induced mouse RAW264.7 macrophages assessed as suppression of IL-1beta mRNA level pretreated for 2 hrs followed by stimulation with LPS for 6 hrs by RT-qPCR analysis; type: functional, cell-based
RAW264.7 [16] = assay: Antiinflammatory activity in LPS-induced mouse RAW264.7 macrophages assessed as suppression of IL-6 mRNA level pretreated for 2 hrs followed by stimulation with LPS for 6 hrs by RT-qPCR analysis; type: functional, cell-based
[17] = biological target: Transcription factor p65 (Mus musculus) (UniProt Q04207); assay: Inhibition of NFkappaB in LPS-induced mouse RAW264.7 cells assessed as increase in P65 in cytosol pretreated for 2 hrs followed by stimulation with LPS for 1 hr by Western blot analysis; type: cell-based
Mus musculus = assay: Antiinflammatory activity in LPS-induced C57BL/6 mouse assessed as survival rate pretreated at 10 mg/kg, iv for 15 mins followed by LPS stimulation measured for 7 days; type: functional; details: C57BL/6, iv
[18] = Stability in phosphate buffer at pH 7.4 by UV-visible absorption analysis; type: physicochemical
RAW264.7 [19] = assay: Inhibition of NFkappaB in LPS-induced mouse RAW264.7 cells assessed as suppression of binding of NF-kappabeta with DNA in nucleus pretreated for 2 hrs followed by stimulation with LPS for 1 hr by EMSA; type: cell-based

Sequence of Transcription factor p65 (Mus musculus) (Q04207 whole entry): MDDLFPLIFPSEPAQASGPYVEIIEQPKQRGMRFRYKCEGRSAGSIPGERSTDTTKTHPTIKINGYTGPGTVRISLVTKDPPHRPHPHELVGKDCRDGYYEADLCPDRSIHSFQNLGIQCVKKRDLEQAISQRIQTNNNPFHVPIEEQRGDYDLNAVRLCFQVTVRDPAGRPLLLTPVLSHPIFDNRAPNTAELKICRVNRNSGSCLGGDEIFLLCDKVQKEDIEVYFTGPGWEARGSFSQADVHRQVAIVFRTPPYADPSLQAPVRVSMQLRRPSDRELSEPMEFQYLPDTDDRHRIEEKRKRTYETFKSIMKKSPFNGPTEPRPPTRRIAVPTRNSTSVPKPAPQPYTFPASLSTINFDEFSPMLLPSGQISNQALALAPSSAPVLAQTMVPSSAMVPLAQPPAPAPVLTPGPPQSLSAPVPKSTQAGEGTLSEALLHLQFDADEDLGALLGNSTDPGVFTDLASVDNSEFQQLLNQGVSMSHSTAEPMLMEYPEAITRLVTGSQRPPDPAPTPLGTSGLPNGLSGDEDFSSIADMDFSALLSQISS

## COc1cc(/C=C/C(=O)/C=C/c2ccc(Br)cc2)ccc1O
[1]
  Activity: Non-toxic

## COc1cc(/C=C/C(=O)/C=C/c2ccccc2Cl)ccc1O
[1]
  Activity: Non-toxic

## COc1cc(/C=C/C(=O)/C=C/c2cccc(Cl)c2Cl)ccc1O
[1]
  Activity: Non-toxic
RAW264.7 [2]
  inhibition: Active

## COc1cc(/C=C/C(=O)CC(=O)/C=C/c2ccc(O)c(OC)c2)ccc1O [CURCUMIN]
[1]
  Activity: Non-toxic
RAW264.7 [2]
  inhibition: Active

## COc1cc(/C=C/C(=O)/C=C/c2ccc(C(C)C)cc2)ccc1O
[1]
  Activity: Non-toxic
RAW264.7 [2]
  inhibition: Active

## COc1cc(/C=C/C(=O)/C=C/c2cc3c(cc2Br)OCO3)ccc1O
[1]
  Activity: Non-toxic
RAW264.7 [3]
  inhibition: Active
RAW264.7 [4]
  inhibition: Active
[5]
  inhibition: Dose-dependent effect
RAW264.7 [6]
  inhibition: Dose-dependent effect
RAW264.7 [7]
  inhibition: Active
RAW264.7 [8]
  inhibition: Dose-dependent effect
[9]
  inhibition: Dose-dependent effect
RAW264.7 [2]
  inhibition: Active
RAW264.7 [10]
  inhibition: Active

## COc1cc(/C=C/C(=O)/C=C/c2cc(F)ccc2F)ccc1O
[1]
  Activity: Non-toxic
RAW264.7 [2]
  inhibition: Active

## COc1cc(/C=C/C(=O)/C=C/c2ccc3ccccc3c2)ccc1O
[1]
  Activity: Non-toxic

## COc1cc(/C=C/C(=O)/C=C/c2ccc(O)cc2Br)ccc1O
[1]
  Activity: Non-toxic
RAW264.7 [2]
  inhibition: Active

## COc1cc(/C=C/C(=O)/C=C/c2ccc3c(c2)CCN3)ccc1O
[1]
  Activity: Non-toxic

## COc1cc(/C=C/C(=O)/C=C/c2c(F)cccc2Br)ccc1O
[1]
  Activity: Non-toxic

## COc1ccc(Br)c(/C=C/C(=O)/C=C/c2ccc(O)c(OC)c2)c1
[1]
  Activity: Non-toxic
RAW264.7 [2]
  inhibition: Active

## COc1cc(/C=C/C(=O)/C=C/c2ccccc2[N+](=O)[O-])ccc1O
[11]
  Activity: Active
RAW264.7 [12]
  inhibition: Dose-dependent effect
[1]
  Activity: Non-toxic
RAW264.7 [13]
  inhibition: Dose-dependent effect
RAW264.7 [3]
  inhibition: Active
RAW264.7 [14]
  Activity: Dose-dependent effect
RAW264.7 [4]
  inhibition: Active
[5]
  inhibition: Dose-dependent effect
RAW264.7 [6]
  inhibition: Dose-dependent effect
RAW264.7 [7]
  inhibition: Active
RAW264.7 [15]
  inhibition: Dose-dependent effect
RAW264.7 [16]
  inhibition: Dose-dependent effect
[17]
  Activity: Active
Mus musculus
  survival at 10 mg/kg: 55%
[18]
  Stability: Stable
RAW264.7 [8]
  inhibition: Dose-dependent effect
RAW264.7 [19]
  inhibition: Active
[9]
  inhibition: Dose-dependent effect
RAW264.7 [2]
  inhibition: Active
RAW264.7 [10]
  inhibition: Active

## COc1cc(/C=C/C(=O)/C=C/c2cccc(C(F)(F)F)c2F)ccc1O
[1]
  Activity: Non-toxic
RAW264.7 [2]
  inhibition: Active

## COc1cc(/C=C/C(=O)/C=C/c2ccc(OC)c(Br)c2)ccc1O
[1]
  Activity: Non-toxic
RAW264.7 [3]
  inhibition: Active
RAW264.7 [4]
  inhibition: Active
[5]
  inhibition: Dose-dependent effect
RAW264.7 [6]
  inhibition: Dose-dependent effect
RAW264.7 [7]
  inhibition: Active
RAW264.7 [8]
  inhibition: Dose-dependent effect
[9]
  inhibition: Dose-dependent effect
RAW264.7 [2]
  inhibition: Active
RAW264.7 [10]
  inhibition: Active

## COc1cc(/C=C/C(=O)/C=C/c2cc([N+](=O)[O-])ccc2F)ccc1O
[1]
  Activity: Non-toxic

## COc1cc(/C=C/C(=O)/C=C/c2ccc(OC)c(OC)c2OC)ccc1O
[1]
  Activity: Non-toxic
RAW264.7 [3]
  inhibition: Active
RAW264.7 [4]
  inhibition: Active
[5]
  inhibition: Dose-dependent effect
RAW264.7 [6]
  inhibition: Dose-dependent effect
RAW264.7 [7]
  inhibition: Active
[18]
  Stability: Stable
RAW264.7 [8]
  inhibition: Dose-dependent effect
[9]
  inhibition: Dose-dependent effect
RAW264.7 [2]
  inhibition: Active
RAW264.7 [10]
  inhibition: Active

## COc1cc(/C=C/C(=O)/C=C/c2ccccc2C(F)(F)F)ccc1O
[1]
  Activity: Non-toxic
RAW264.7 [2]
  inhibition: Active

## COc1cc(/C=C/C(=O)/C=C/c2cc(Br)ccc2Br)ccc1O
[1]
  Activity: Non-toxic
RAW264.7 [2]
  inhibition: Active

## COc1cc(/C=C/C(=O)/C=C/c2ccccc2Br)ccc1O
[1]
  Activity: Non-toxic

## COc1cc(/C=C/C(=O)/C=C/c2ccc(Br)c(F)c2)ccc1O
[1]
  Activity: Non-toxic

## C=CCOc1ccc(/C=C/C(=O)/C=C/c2ccc(O)c(OC)c2)cc1
[1]
  Activity: Non-toxic

## COc1cc(/C=C/C(=O)/C=C/c2cccc(Br)c2)ccc1O
[1]
  Activity: Non-toxic
RAW264.7 [2]
  inhibition: Active

## COc1cc(/C=C/C(=O)/C=C/c2cccc(O)c2)ccc1O
[1]
  Activity: Non-toxic
RAW264.7 [2]
  inhibition: Active

## COc1cc(/C=C/C(=O)/C=C/c2ccc(OC(C)=O)cc2)ccc1O
[1]
  Activity: Non-toxic

## COc1cc(/C=C/C(=O)/C=C/c2ccc([N+](=O)[O-])cc2[N+](=O)[O-])ccc1O
[1]
  Activity: Non-toxic

## COc1cc(/C=C/C(=O)/C=C/c2ccc(C(F)(F)F)cc2)ccc1O
[1]
  Activity: Non-toxic
RAW264.7 [2]
  inhibition: Active

## COc1cc(/C=C/C(=O)/C=C/c2c(C)cc(C)cc2C)ccc1O
[1]
  Activity: Non-toxic
RAW264.7 [3]
  inhibition: Active
RAW264.7 [4]
  inhibition: Active
[5]
  inhibition: Dose-dependent effect
RAW264.7 [6]
  inhibition: Dose-dependent effect
RAW264.7 [7]
  inhibition: Active
RAW264.7 [8]
  inhibition: Dose-dependent effect
[9]
  inhibition: Dose-dependent effect
RAW264.7 [2]
  inhibition: Active
RAW264.7 [10]
  inhibition: Active

## COc1cc(/C=C/C(=O)/C=C/c2ccc(C(F)(F)F)cc2C(F)(F)F)ccc1O
[1]
  Activity: Non-toxic
RAW264.7 [2]
  inhibition: Active

## COc1ccc(F)c(/C=C/C(=O)/C=C/c2ccc(O)c(OC)c2)c1
[1]
  Activity: Non-toxic

## COc1cc(/C=C/C(=O)/C=C/c2cc(F)ccc2Br)ccc1O
[1]
  Activity: Non-toxic
RAW264.7 [2]
  inhibition: Active

## COc1ccc(/C=C/C(=O)/C=C/c2ccc(O)c(OC)c2)c(F)c1
[1]
  Activity: Non-toxic
RAW264.7 [3]
  inhibition: Active
RAW264.7 [4]
  inhibition: Active
[5]
  inhibition: Dose-dependent effect
RAW264.7 [6]
  inhibition: Dose-dependent effect
RAW264.7 [7]
  inhibition: Active
RAW264.7 [8]
  inhibition: Dose-dependent effect
[9]
  inhibition: Dose-dependent effect
RAW264.7 [2]
  inhibition: Active
RAW264.7 [10]
  inhibition: Active
